From patent US12161656B2 (MELINTA SUBSIDIARY CORP., priority 2010, dated 2024)
Like-named read-outs stand apart in the source and are kept apart here.

Key:
[1] = tested on: rabbit red blood cells (RBCs)
[2] = Text: The solubility of four non-dimethlyamino tetracyclines, with and without Mg^2+, was examined.
[3] = tested on: Human umbilical vein endothelial cells (HUVEC); test: Uptake of minocycline in HUVEC at various Mg/minocycline ratios (LCMS), Example 12; format: cell-based; details: 1 mg/mL in saline, 30 min, Mg/minocycline ratios 0-25, FIGS. 6 and 7
Protocol: Cells and reagents: Human umbilical vein endothelial cells (HUVEC) were purchased from Lonza and maintained according to manufacturer's recommendations in EGM-2 media. A 10 mg/mL solution of minocycline was prepared in 13.6 mg/mL Na-acetate without addition of Mg. This stock solution was further diluted in saline to 1 mg/mL with addition of Mg in the form of 1 M MgSO4 to generate the following molar ratios of Mg to minocycline: 0, 1, 2.5, 5, 10, 25.
Uptake experimental conditions: HUVECs were seeded at 4.5×10^5 cells/well density in 6-well plates in EGM-2 media. Two days after seeding, cells were washed once with 2 mL of saline, and then 2 mL of 1 mg/mL drug solution in saline prepared as described above was placed in each well in triplicate. Plates were incubated in a CO2 incubator at 37° C. for 30 min. Drug solutions were aspirated and cells were washed once with 2 mL of saline. 0.5 mL of saline was placed in each well and the cell monolayer was scraped using a plastic cell scraper. Cell suspensions were transferred to 1.5 mL plastic tubes and sonicated for 30 sec at maximal power. Cell lysates were spun down for 10 min on a table top microcentrifuge at maximum speed and supernatants were collected. […]

[4] = tested on: rabbit red blood cells (RBCs); test: In vitro hemolysis of rabbit red blood cells (in vitro model of venous phlebitis), Example 8; details: Table 29, rabbit RBCs, 2.5 mg/ml minocycline solution, different molar ratios cation:minocycline

C[C@@H]1[C@H](O)[C@@H](C)/C=C/C=C/C=C/C=C/C=C/C=C/C=C/[C@H](O[C@@H]2O[C@H](C)[C@@H](O)[C@H](N)[C@@H]2O)C[C@@H]2O[C@](O)(C[C@@H](O)C[C@@H](O)[C@H](O)CC[C@@H](O)C[C@@H](O)CC(=O)O[C@H]1C)C[C@H](O)[C@H]2C(=O)O [Amphoterin B, Amphotericin B]
Hemolysis of RBCs in solution relative to water [1]: 101.31% | Hemolysis of RBCs in solution relative to water ([1]; pH 5.85): 101.31%

C[C@H]1c2cccc(O)c2C(=O)C2=C(O)[C@]3(O)C(=O)C(C(N)=O)=C(O)[C@@H](N(C)C)[C@@H]3[C@@H](O)[C@@H]21 [Doxycycline]
solubility (text summary of Table 36) [2]: is soluble in the absence of divalent cations, such as Mg^2+, but is insoluble in the presence of divalent cations at low pH

CN(C)c1ccc(O)c2c1C[C@H]1C[C@H]3[C@H](N(C)C)C(O)=C(C(N)=O)C(=O)[C@@]3(O)C(O)=C1C2=O [Minocycline]
intracellular uptake of minocycline [3]: decrease in intracellular uptake of minocycline is observed as the concentration of a divalent cation, such as Mg^2+ increases

CN(C)[C@@H]1C(O)=C(C(N)=O)C(=O)[C@@]2(O)C(O)=C3C(=O)c4c(O)cccc4[C@@](C)(O)[C@H]3[C@H](O)[C@@H]12 [oxytetracycline]
solubility (text summary of Table 36) [2]: remains insoluble in the presence of divalent cations, such as Mg^2+, at low pH

Triton-x
Hemolysis of RBCs in solution relative to water [4]: 97.82%
